The values that follow come from ChEMBL document CHEMBL3596151, “Elucidation of the in vitro and in vivo activities of bridged 1,2,4-trioxolanes, bridged 1,2,4,5-tetraoxanes, tricyclic monoperoxides, silyl peroxides, and hydroxylamine derivatives against Schistosoma mansoni” (Bioorg Med Chem, 2015).

The source made the active and inactive calls. The calls are words filed in the database; no cut-off is given here.

For data set [1], the system named is Schistosoma mansoni. Description: Antischistosomal activity against adult Schistosoma mansoni assessed as decrease in viability after 72 hrs by microscopic analysis. In kind it is functional, organism-based.
Data set [2] deals with L6. Description: Cytotoxicity against rat L6 cells assessed as decrease in cell viability after 72 hrs by resazurin dye based fluorescence analysis. Conditions: for Activity: rat, l6, 72 h; for IC50: Rattus norvegicus, L6, 72 h. A general note: Alamar Blue is a resazurin reagent that responds to reducing activity.
For data set [3], the system named is Schistosoma mansoni. Description: Antischistosomal activity against newly transformed Schistosoma mansoni cercariae assessed as decrease in viability at 12.5 ug/ml after 72 hrs by microscopic analysis. In kind it is functional, organism-based.
Data set [4] can be described thus: Selectivity index, ratio of IC50 for rat L6 cells to IC50 for adult Schistosoma mansoni.
Data set [5] has as its system Schistosoma mansoni. Kind of data set: Antischistosomal activity against newly transformed Schistosoma mansoni cercariae assessed as decrease in viability after 72 hrs by microscopic analysis. Type of data set: functional, organism-based.
Data set [6] relates to Schistosoma mansoni. Description: Antischistosomal activity against adult Schistosoma mansoni assessed as decrease in viability at 25 ug/ml after 72 hrs by microscopic analysis. In kind it is functional, organism-based.
Data set [7] has as its system Schistosoma mansoni. Description: Antischistosomal activity against Schistosoma mansoni strain Liberian cercariae infected in NMRI mouse assessed as reduction of worm burden in portal and mesenteric veins and liver at 400 mg/kg, po treated after 49 days of infection measured 16 to 21 days post treatment. In kind it is functional.

Regarding `CCCC[C@]1(C(C)=O)CCC2(C)OOC1(C)O2` (single isomer, unassigned), the IC50 – broadly, the concentration at which inhibition is half-maximal – in data set [1] worked out at 12.2 µM. For the same compound, the Activity entry in data set [2] is “Non-toxic”. Further, in data set [3], the inhibition entry was “inactive”.

Consider `CC(C)C[C@]12OO[C@](C)(OO1)C2C12CC3CC(CC(C3)C1)C2` (some centres undefined), for which the IC50 in data set [1] was found to be 1.8 µM; in data set [2], 1 µM; in data set [5], 0.9 µM. The “Ratio IC50” value in data set [4] worked out at 0.5.

`CC(=O)CCC1(Cc2ccccc2)[C@]2(C)OO[C@@]1(C)OO2` (some centres undefined): the half-maximal inhibitory concentration (IC50) in data set [1] worked out at 10.9 µM; in data set [5], 1.6 µM. For the same compound, the Activity result in data set [2] is recorded as “Non-toxic”.

As to `CC(C)(C)C1CCC2(CC1)OO[Si](C)(C)CC[Si](C)(C)OO2`, the Activity result in data set [2] is “Non-toxic”. The inhibition result in data set [6] is “inactive”. Besides, in data set [5], the IC50 is 4 µM.

For `CC[C@]12OO[C@@]3(CC(C)C)OC(C)(CCC31)O2`, the IC50 came out at 4.4 µM in data set [1], 24.4 µM in data set [2] and 2.7 µM in data set [5]. Moreover, the “Ratio IC50” value in data set [4] was 5.7. In addition, in data set [7], the inhibition in vivo (as a rule, the drop in the measured response relative to a control, in per cent) at 400 mg/kg was 26.7%.

`CC(=O)[C@]1(Cc2ccc([N+](=O)[O-])cc2)CC[C@]2(C)OO[C@@]1(C)O2`: the IC50 worked out at 7 µM in data set [1], 22.7 µM in data set [2] and 5.7 µM in data set [5]. In addition, the “Ratio IC50” value in data set [4] is given as 1.7.

On to `CC(=O)[C@@]1(Cc2ccccc2)CC[C@]2(C)OO[C@@]1(C)O2`, for which the IC50 in data set [1] turned out to be 10.3 µM; in data set [5], 5.6 µM. In addition, the Activity result in data set [2] is reported as “Non-toxic”.

For `C[Si]1(C)CC[Si](C)(C)OOC2(CCCCCCCCCCC2)OO1`, in data set [2], the Activity result is on record as “Non-toxic”. In data set [6], the inhibition result was “inactive”. Besides, in data set [5], the IC50 was 7.2 µM.

For `CC(=O)[C@]1(Cc2ccc(C)cc2)CC[C@]2(C)OO[C@@]1(C)O2`, in data set [1], the IC50 stood at 10 µM. Also, in data set [2], the Activity result is listed as “Non-toxic”. In addition, in data set [3], the inhibition result was “inactive”.

With `CC(=O)[C@]1(Cc2ccccc2)CC[C@]2(C)OO[C@@]1(C)O2`, the IC50 in data set [1] worked out at 1.8 µM; in data set [2], 5.4 µM; in data set [5], 0.4 µM. In addition, the “Ratio IC50” value in data set [4] came out at 2.9. For the same compound, the inhibition in vivo at 400 mg/kg in data set [7] worked out at 6.2%.

As to `CC(=O)[C@@]1(Cc2ccc(Br)cc2)CC[C@]2(C)OO[C@@]1(C)O2`, the IC50 was determined as 4.2 µM in data set [1], 8.1 µM in data set [2] and 2.2 µM in data set [5]. Besides, the “Ratio IC50” value in data set [4] was 1.6. Further, the inhibition in vivo at 400 mg/kg in data set [7] was 44.3%.

Regarding `C[C@]12C[C@](C34CC5CC(CC(C5)C3)C4)(OO1)OO2`, the IC50 is 2 µM in data set [1], < 0.4 µM in data set [2] and 1.3 µM in data set [5]. Also, the “Ratio IC50” value in data set [4] was <0.2.

On to `CC(=O)CCC1(Cc2ccc(C)cc2)[C@]2(C)OO[C@@]1(C)OO2` (some centres undefined), for which the IC50 in data set [1] is 9.8 µM; in data set [2] it was 2.5 µM; in data set [5], 5.2 µM. Also, the “Ratio IC50” value in data set [4] amounted to 0.3.

For the compound `CC(=O)[C@]1(Cc2ccc(Br)cc2)CC[C@]2(C)OO[C@@]1(C)O2`, the IC50 in data set [1] came to 6.6 µM; in data set [2], 7.3 µM; in data set [5] it was 6.2 µM. Besides, the “Ratio IC50” value in data set [4] is listed as 1.1.

For the compound `CC(=O)[C@@]1(Cc2ccc(Cl)cc2)CC[C@]2(C)OO[C@@]1(C)O2`, the IC50 in data set [1] stood at 11.2 µM; in data set [5] it was 3.2 µM. The Activity result in data set [2] was “Non-toxic”.

Regarding `CC(=O)CCC1(Cc2ccc(Cl)cc2)[C@]2(C)OO[C@@]1(C)OO2` (some centres undefined), the IC50 in data set [1] came out at 15.4 µM; in data set [5] it was 3.5 µM. For the same compound, the Activity entry in data set [2] is recorded as “Non-toxic”.

With `CC(C)C[C@@]12OO[C@]3(C)OC(C)(CCC31)O2`, the IC50 in data set [1] came to 2 µM; in data set [2], 4.9 µM; in data set [5], 2 µM. Also, in data set [4], the “Ratio IC50” value came out at 3. The inhibition in vivo at 400 mg/kg in data set [7] came out at 0%.

Take `CC(=O)[C@]1(Cc2ccc(Cl)cc2)CC[C@]2(C)OO[C@@]1(C)O2`: the values for the IC50 in data set [1], in data set [2] and in data set [5] were 4.2 µM, 2.7 µM and 2.8 µM, respectively. For the same compound, in data set [4], the “Ratio IC50” value is on record as 1.3. For the same compound, the inhibition in vivo at 400 mg/kg in data set [7] is 42.9%.

With `CC[C@]12C[C@](C34CC5CC(CC(C5)C3)C4)(OO1)OO2`, the IC50 was 2 µM in data set [1], < 0.4 µM in data set [2] and 1.8 µM in data set [5]. Also, the “Ratio IC50” value in data set [4] is reported as <0.2.

As to `CC(=O)[C@@]1(Cc2ccc(C)cc2)CC[C@]2(C)OO[C@@]1(C)O2`, the IC50 in data set [1] was 7.4 µM; in data set [2], 15.3 µM; in data set [5] it was 12.2 µM. Also, in data set [4], the “Ratio IC50” value is listed as 7.4. In data set [7], the inhibition in vivo at 400 mg/kg turned out to be 9.9%.

On to `CC(=O)[C@@]1(Cc2ccc([N+](=O)[O-])cc2)CC[C@]2(C)OO[C@@]1(C)O2`, for which the IC50 in data set [1] came out at 22.8 µM; in data set [5], 7.7 µM. Moreover, the Activity entry in data set [2] is on record as “Non-toxic”.

In the case of `CC1[C@]2(C)OO[C@@]1(C13CC4CC(CC(C4)C1)C3)OO2` (some centres undefined), the IC50 in data set [1] was 3.9 µM; in data set [2] it was < 0.4 µM; in data set [5] it was 4 µM. Moreover, the “Ratio IC50” value in data set [4] was <0.1.

Turning to `CC(=O)CCC1(Cc2ccc(Br)cc2)[C@]2(C)OO[C@@]1(C)OO2` (some centres undefined), the results for the IC50 in data set [1], in data set [2] and in data set [5] were 8.4 µM, 2.5 µM and 1.3 µM, respectively. Further, the “Ratio IC50” value in data set [4] was 0.4.
